Activity calls are given as the source filed them. The calls are words filed in the database; no cut-off is given here. Some results are limits rather than exact numbers.

This is an account of results in ChEMBL document CHEMBL4814022, “Enantiomeric 4'-truncated 6'-fluoro-3-deazaneplanocin and its 3-bromo derivative: Synthesis and antiviral properties, including Ebola and Marburg” (Bioorg Med Chem Lett, 2021).

In series [1] the test system is Measles morbillivirus. Nature of the series: Antiviral activity against Measles virus infected in African green monkey Vero cells by neutral red assay. The series is classed as functional, organism-based.
Series [2] in a line: Selectivity index, ratio of EC50 for antiviral activity against Measles virus infected in African green monkey Vero cells to CC50 for African green monkey Vero cells. The series is classed as toxicity. To be noted: read-out: Ratio CC50/EC50.
In the next series the test system is Norovirus. Nature of the series: Antiviral activity against Norovirus infected in human HG23 cells. The series is classed as functional, organism-based.
A short description of series [3]: Cytotoxicity against human HG23 cells. The series is classed as cell-based.
Series [4] is described as follows: Selectivity index, ratio of EC50 for antiviral activity against Norovirus infected in human HG23 cells by visible analysis to CC50 for human HG23 cells. The series is classed as toxicity, cell-based.
A further series has as its system Zaire ebolavirus. Put plainly: Antiviral activity against Zaire ebola virus infected in African green monkey Vero cells. The series is classed as functional, organism-based.
The nature of series [5]: Cytotoxicity against African green monkey Vero cells. The series is classed as cell-based. The conditions noted are these: chlorocebus sabaeus.
Series [6] is described as follows: Selectivity index, ratio of CC50 for African green monkey Vero cells to EC50 for antiviral activity against Ebola virus infected in African green monkey Vero cells. The series is classed as toxicity. To be noted: read-out: Ratio CC50/EC50.
Another series concerns Marburgvirus. Nature of the series: Antiviral activity against Marburgvirus Angola infected in African green monkey Vero cells. To be noted: Orthomarburgvirus. The series is classed as functional, organism-based.
The nature of series [7]: Selectivity index, ratio of EC50 for antiviral activity against Marburgvirus Angola infected in African green monkey Vero cells to CC50 for African green monkey Vero cells. The conditions noted are these: read-out: Ratio CC50/EC50. The series is classed as toxicity.
The subject of series [8] is Measles morbillivirus. Put plainly: Antiviral activity against Measles virus infected in African green monkey Vero cells by visible analysis. The series is classed as functional, organism-based.
Series [9] can be described thus: Selectivity index, ratio of EC50 for antiviral activity against Measles virus infected in African green monkey Vero cells by visible analysis to CC50 for African green monkey Vero cells. To be noted: read-out: Ratio CC50/EC50. The series is classed as toxicity.
The test system of another series is Chikungunya virus. Put plainly: Antiviral activity against Chikungunya virus infected in African green monkey Vero 76 cells. The series is classed as functional, organism-based.
Another series deals with dengue virus type 2. Nature of the series: Antiviral activity against Dengue virus 2 infected in African green monkey Vero 76 cells. The series is classed as functional, organism-based.
Series [10] has as its system Japanese encephalitis virus. Nature of the series: Antiviral activity against Japanese encephalitis virus infected in African green monkey Vero 76 cells. The series is classed as functional, organism-based.
A further series has as its system Punta Toro virus. Nature of the series: Antiviral activity against Punta Toro virus infected in African green monkey Vero 76 cells. The series is classed as functional, organism-based.
A further series concerns Rift Valley fever virus. Nature of the series: Antiviral activity against Rift Valley fever virus infected in African green monkey Vero 76 cells. The series is classed as functional, organism-based.
Another series concerns Tacaribe virus. Put plainly: Antiviral activity against Tacaribe virus infected in African green monkey Vero cells. The series is classed as functional, organism-based. To be noted: Mammarenavirus tacaribeense.
The subject of series [11] is Venezuelan equine encephalitis virus. Nature of the series: Antiviral activity against Venezuelan equine encephalitis virus infected in African green monkey Vero 76 cells. The series is classed as functional, organism-based.
The test system of the next series is West Nile virus. Nature of the series: Antiviral activity against West Nile virus infected in African green monkey Vero 76 cells. The series is classed as functional, organism-based.
A further series concerns Yellow fever virus. Nature of the series: Antiviral activity against Yellow fever virus infected in African green monkey Vero 76 cells. The series is classed as functional, organism-based.
A further series deals with Human adenovirus 5. Put plainly: Antiviral activity against Human adenovirus 5 infected in human A549 cells. The series is classed as functional, organism-based.
Another series deals with Influenza A virus. Nature of the series: Antiviral activity against Influenza A virus (H1N1) infected in dog MDCK cells. The series is classed as functional, organism-based.
A further series deals with Enterovirus A71. Nature of the series: Antiviral activity against Human enterovirus 71 infected in African green monkey Vero 76 cells. The series is classed as functional, organism-based.
Another series deals with Junin virus. Nature of the series: Antiviral activity against Junin virus infected in African green monkey Vero cells. The conditions noted are these: Mammarenavirus juninense. The series is classed as functional, organism-based.
A further series deals with Pichinde virus. Put plainly: Antiviral activity against Pichinde virus infected in African green monkey Vero cells. The series is classed as functional, organism-based.
The subject of the next series is Murine norovirus. Put plainly: Antiviral activity against Murine norovirus infected in mouse RAW264.7 cells. The series is classed as functional, organism-based.
The next series deals with Hepatitis B virus. Nature of the series: Antiviral activity against Hepatitis B virus infected in human HepG2.2.15 cells. The series is classed as functional, organism-based.
The test system of the next series is BK polyomavirus. Put plainly: Antiviral activity against BK polyomavirus infected in human HFF cells. The series is classed as functional, organism-based. To be noted: Betapolyomavirus hominis.
Series [12] in a line: Cytotoxicity against human HFF cells. The series is classed as cell-based.
Series [13] is described as follows: Selectivity index, ratio of EC50 for antiviral activity against BK polyomavirus infected in human HFF cells by visible analysis to CC50 for human HFF cells. The series is classed as toxicity, cell-based. To be noted: read-out: Ratio CC50/EC50.
The subject of another series is Human alphaherpesvirus 1. Nature of the series: Antiviral activity against HSV-1 infected in human HFF cells. The series is classed as functional, organism-based.
A further series concerns Lassa virus. Put plainly: Antiviral activity against Lassa virus infected in African green monkey Vero cells. The series is classed as functional, organism-based. The conditions noted are these: Mammarenavirus lassaense.
Series [14] relates to Measles morbillivirus. Put plainly: Antiviral activity against Measles virus infected in African green monkey Vero 76 cells. The series is classed as functional, organism-based.
The next series concerns Ebolavirus. Put plainly: Antiviral activity against Ebola virus infected in African green monkey Vero 76 cells. The series is classed as functional, organism-based.

`Nc1ccn([C@@H]2O[C@H](CO)[C@@H](O)[C@H]2F)c(=O)n1`: a half-maximal response with Measles morbillivirus [1] (EC50) required 1.1 µM. The selectivity ratio in [2] is above 91.
Molecule `C[C@@]1(O)[C@H](O)[C@@H](CO)O[C@H]1n1ccc(N)nc1=O` came in with a half-maximal effective concentration (EC50) in the series on Norovirus of 6.4 µM. In series [3], this molecule came in with a CC50 above 300 µM. Besides, the selectivity ratio in series [4] is above 47.
Regarding `Nc1ncc(Br)c2c1ncn2[C@@H]1C(F)=C[C@@H](O)[C@H]1O`, the EC50 is 0.11 µM in the series with Zaire ebolavirus; 0.1 µM in the series with Marburgvirus; 1.2 µM in the series with Measles morbillivirus [1]; 1.8 µM in the series on Measles morbillivirus [8]; 6.4 µM in the series with Norovirus. Also, the results for the CC50 in series [5] and in [3] were at least 9.5 µM and above 100 µM, respectively. Moreover, the selectivity ratio was 381 in series [6]; 420 in series [7]; 7.9 in [2]; 6.7 in series [9]; above 16 in series [4] (read-out: Ratio CC50/EC50). Further, the result (in the series with Chikungunya virus; in the series on dengue virus type 2; in series [10]; in the series on Punta Toro virus; in the series with Rift Valley fever virus; in the series with Tacaribe virus) was inactive. Moreover, the result (in series [11]; in the series with West Nile virus; in the series on Yellow fever virus; in the series on Human adenovirus 5; with Influenza A virus; in the series on Enterovirus A71) was inactive. Besides, the outcome with Junin virus, in the series with Pichinde virus, in the series with Murine norovirus and in the series with Hepatitis B virus was inactive.
As for `Nc1nccc2c1ncn2[C@H]1C(F)=C[C@H](O)[C@@H]1O`, in the series on BK polyomavirus, the EC50 is 23 µM. In addition, the CC50 in series [12] was above 150 µM. Moreover, the selectivity ratio in series [13] is above 7. Besides, the outcome (with Chikungunya virus; in the series with dengue virus type 2; in the series on Rift Valley fever virus; in the series with Tacaribe virus; in [11]; in the series with West Nile virus) was inactive. Moreover, the outcome in the series with Yellow fever virus, in the series with Influenza A virus, in the series with Enterovirus A71, in the series with Pichinde virus, with Human alphaherpesvirus 1 and with Lassa virus was inactive. The outcome in the series on Measles morbillivirus [14] and with Ebolavirus was inactive.
For `Nc1nccc2c1ncn2[C@@H]1C(F)=C[C@@H](O)[C@H]1O`, the EC50 stood at 0.12 µM in the series on Zaire ebolavirus; 0.52 µM with Marburgvirus; 3.6 µM in the series with Measles morbillivirus [1]; 4.2 µM with Measles morbillivirus [8]; 2.7 µM in the series on Norovirus. For the same molecule, the half-maximal cytotoxic concentration (CC50) in series [5] is at least 14 µM; in series [3], above 100 µM. Moreover, the selectivity ratio in series [6] is 117; in series [7], 27; in series [2] it was 36; in series [9], 10; in [4] (read-out: Ratio CC50/EC50), above 37. For the same molecule, the outcome (with Chikungunya virus; with dengue virus type 2; in [10]; in the series on Punta Toro virus; in the series with Rift Valley fever virus; in the series on Tacaribe virus) was inactive. Further, the result (in series [11]; with West Nile virus; in the series on Yellow fever virus; with Human adenovirus 5; in the series with Influenza A virus; in the series on Enterovirus A71) was inactive. For the same molecule, the result with Junin virus, with Pichinde virus, with Murine norovirus and in the series on Hepatitis B virus was inactive.
Take `NC(=O)c1nc(F)cnc1O` [FAVIPIRAVIR]: the EC50 with Zaire ebolavirus stood at 66 µM; in the series with Marburgvirus it was 155 µM. For the same molecule, in [5], the CC50 is above 1000 µM. Further, the selectivity ratio in [6] is 15; in series [7], above 6.5.
Consider `Nc1ncc(Br)c2c1ncn2[C@H]1C(F)=C[C@H](O)[C@@H]1O`, for which it took 34.5 µM to reach a half-maximal effect in the series on BK polyomavirus (EC50). This molecule yielded a 90% effect concentration (EC90) in the series on BK polyomavirus of 145 µM. The CC50 in [12] is above 150 µM. In addition, the selectivity ratio in series [13] was above 4. Further, the outcome (in the series on Chikungunya virus; with dengue virus type 2; in the series with Rift Valley fever virus; with Tacaribe virus; in series [11]; in the series with West Nile virus) was inactive. The result in the series with Yellow fever virus, in the series on Influenza A virus, with Enterovirus A71, in the series with Pichinde virus, in the series on Human alphaherpesvirus 1 and in the series with Lassa virus was inactive. The outcome with Measles morbillivirus [14] and in the series with Ebolavirus was inactive.

Broadly, the EC50 is the concentration needed to bring the measured effect to its halfway point. The CC50 is the concentration giving 50% cytotoxicity. For orientation: EC90 means the point of the concentration-response curve where the effect stands at 90%.
